# Reference: patent US12208164B2, “Modular metal-organic polyhedra superassembly compositions” (UNM Rainforest Innovations, priority 2019, dated 2025)
# System: A549 cells
# Assay: Targeted cell killing efficacy, viability of A549 cells
# Assay type: cell-based, human
# Conditions: incubated 2 hours, series of concentrations
# Description: Cell viability of the constructed nanocarriers was assessed by CellTiter-Glo 2.0 assay. […] Then, 100 μL of the samples was added into a white 96-well plate. Subsequently, 100 μL CellTiter-Glo 2.0 reagent was dispensed into each well. The luminescence was recorded 10 minutes after addition of CellTiter-Glo 2.0 reagent by a BioTek microplate reader. Cell viability was calculated as a percentage of mammalian cells in the absence of nanocarriers.
compound,measurement,value
"COc1cccc2c1C(=O)c1c(O)c3c(c(O)c1C2=O)C[C@@](O)(C(=O)CO)C[C@@H]3O[C@H]1C[C@H](N)[C@H](O)[C@H](C)O1 [free DOX, doxorubicin]",toxicity to A549 cells,dose-dependent toxicity
